Reference: patent US20200121704A1, “METHODS FOR TREATING HYPERTENSION AND ARTERIAL STIFFNESS” (THE REGENTS OF THE UNIVERSITY OF COLORADO, A BODY CORPORATE, priority 2017, published 2020)

Columns and labels:
Format in all cases: in vivo, human
[1] = Complete blood count (clinical laboratory values at end of each intervention phase)
Description: Sixty subjects were consented for this study. This study was conducted in the Integrative Physiology of Aging Laboratory and the Clinical and Translational Research Center (CTRC) at the University of Colorado Boulder. All blood assays were performed at either Boulder Community Hospital or the University of Colorado Denver Anschutz Medical Campus CTRC Core Laboratory. All testing sessions were performed after an overnight fast and 24-hour abstention from exercise and alcohol consumption. All subjects refrained from all prescription medications for 24 hours and over the counter medications for 48 hours prior to all testing visits.
Clinical laboratory values were obtained from blood samples collected at the end of each intervention phase in 21 subjects. Complete blood work was not obtained in three subjects due to a failed catheterization during at least one of the testing phases.

[2] = test system: PBMCs; experiment: NAD+ and related metabolites in PBMCs
Source text: Oral NR supplementation effectively elevated levels of NAD^+ in PBMCs by about 60% compared with placebo (mean change=6.2 pMol/mg protein) (Table 6). […] Of note, NR also elevated levels of nicotinic acid adenine dinucleotide (NAAD) nearly 5-fold above the placebo condition. […] Though not significant, we also observed an ˜1.5-fold increase in nicotinamide mononucleotide (NMN; mean change=0.72 pMol/mg protein), which may indicate the possible conversion of NR to NMN by nicotinamide riboside kinase (NRK) enzymes or further metabolism of NaM into NMN by nicotinamide phosphoribosyltransferase (NAMPT). […] Collectively, these findings indicate that chronic NR supplementation effectively stimulates NAD^+ metabolism in healthy middle-aged and older men and women.

[3] = test system: healthy middle-aged and older adults; experiment: Resting brachial artery blood pressure
Description: Resting brachial artery blood pressure and heart rate were measured in the seated position after 5 minutes of rest in a quiet examination room using a semi-automated blood pressure device (DYNAMAP™ XL, Johnson & Johnson, Arlington, Tex., USA). Measurements were made multiple times from the non-dominant arm, with 2 minutes of quiet rest between recordings. Repeat measurements were made until 3 blood pressure values were obtained that were within 5 mmHg of one another. These values were then averaged to determine resting systolic and diastolic blood pressure, pulse pressure, mean arterial pressure, and resting heart rate. Baseline blood pressure values were obtained using the above-described protocol on two separate testing days prior to the initiation of the first intervention arm and were averaged to determine baseline blood pressure status (i.e., normotensive vs. pre-hypertensive) for subsequent analyses.
To determine if this effect was greater in subjects with elevated baseline blood pressure, subjects were characterized as either normotensive (SBP <120 mmHg; DBP <80 mmHg) or pre-hypertensive (SBP 120-139 mmHg; DBP 80-89 mmHg) based on their average baseline blood pressure obtained on two separate days. The inventors observed a near significant interaction between treatment condition (NR vs. placebo) and blood pressure status for systolic blood pressure (FIG. 3A; P=0.07), with no effect on diastolic pressure (FIG. 3C), and […] on mean arterial pressure (FIG. 3E; P=0.08). […] Diastolic blood pressure also tended to be reduced in prehypertensive individuals; however this effect was lower in magnitude (3 mmHg reduction) and approached significance (FIG. 3D; P=0.09).

[4] = test system: healthy middle-aged and older adults; experiment: Carotid-femoral pulse wave velocity (large elastic artery stiffness)
Description: Carotid-femoral PWV, the gold-standard assessment of elastic artery stiffness in humans, was measured using transcutaneous tonometry. Pressure waveforms were recorded simultaneously from the carotid and femoral arteries using two identical non-invasive pressure tonometers (SPT-301, Millar Instruments, Houston, Tex., USA). The transit distance was calculated as the distance between the carotid and femoral recording sites, after subtracting the distance between the carotid recording site and the sternal notch. PWV was calculated as the transit distance divided by the time delay between the foot of each pressure wave.

[5] = test system: endothelin-1 (ET-1); experiment: Circulating endothelin-1 concentration; conditions: compared with placebo
Source text: To gain potential insight into the underlying mechanisms by which nicotinamide riboside lowers blood pressure, we assessed plasma concentrations of endothelin-1 (ET-1), a potent vasoconstrictor that is released by the vascular endothelium to regulate vascular smooth muscle tone. […] Thus, nicotinamide riboside may lower blood pressure and arterial stiffness by suppressing ET-1-mediated vasoconstriction.

[6] = NR condition, end of 6-week phase, mean ± SEM, 21 subjects
[7] = NR condition, end of 6-week phase, mean ± SEM, 21 subjects, *P < 0.05 vs. placebo
[8] = PBMCs, NR condition, mean ± SD, N = 21
[9] = PBMCs, NR condition, mean ± SD, N = 21, *p < 0.05
[10] = PBMCs, did not reach statistical significance
[11] = all subjects, NR condition compared with placebo, P<0.05
[12] = pre-hypertensive individuals, P<0.01

## NC(=O)c1ccc[n+]([C@@H]2O[C@H](CO)[C@@H](O)[C@H]2O)c1 [NR, nicotinamide riboside]
[1]; [6]
  HCT: 41.1 ± 0.7%
  HGB: 13.9 ± 0.2 g/dL
  MCH: 31.2 ± 0.3 pg
  MCHC: 33.8 ± 0.2 g/dL
  MCV: 92.3 ± 0.9 fL
  RBC: 4.5 ± 0.1 10^6/μL
  RDW: 13.0 ± 0.2%
  WBC: 4.3 ± 0.3 10^3/μL
  basophils absolute: 0.05 ± 0.01 10^3/μL
  eosinophils absolute: 0.14 ± 0.03 10^3/μL
  lymphocytes absolute: 1.18 ± 0.08 10^3/μL
  lymphocytes relative: 29.5 ± 1.7%
  monocytes absolute: 0.52 ± 0.08 10^3/μL
  monocytes relative: 10.7 ± 0.6%
  neutrophils absolute: 2.41 ± 0.19 10^3/μL
  neutrophils relative: 55.3 ± 1.4%
  platelet count: 206 ± 14 10^3/μL
[1]; [7]
  MPV: 10.7 ± 0.2* fL
  basophils relative: 1.3 ± 0.2* %
  eosinophils relative: 2.9 ± 0.5* %
[1]; NR vs placebo
  Difference between treatment conditions for hematology: No meaningful differences
[1]; all clinical laboratory values (Tables 3-5), NR condition
  All clinical laboratory values versus normal reference range: remained within the normal reference range
[1]; statistically significant difference between conditions, extremely low effect sizes
  Relevance of changes in mean platelet volume and relative distribution of white blood cell types: physiologically insignificant
[2]; PBMCs
  Elevation of NAAD above the placebo condition: ~5 fold
[2]; PBMCs, NR condition, N = 21
  NR: <LOQ
[2]; [8]
  2-3 cAMP: 0.0 ± 0.0 pMol/mg protein
  3-5 cAMP: 0.0 ± 0.0 pMol/mg protein
  ADP: 1133.8 ± 1880.4 pMol/mg protein
  AMP: 770.8 ± 1884.3 pMol/mg protein
  CDP: 67.7 ± 113.1 pMol/mg protein
  CMP: 137.2 ± 366.0 pMol/mg protein
  CTP: 41.0 ± 68.4 pMol/mg protein
  Cytidine: 4.7 ± 6.6 pMol/mg protein
  FAD: 10.2 ± 5.9 pMol/mg protein
  GDP: 198.4 ± 329.0 pMol/mg protein
  GMP: 1010.1 ± 2114.8 pMol/mg protein
  GTP: 327.1 ± 119.1 pMol/mg protein
  Guanosine: 0.5 ± 1.5 pMol/mg protein
  NADP: 8.9 ± 8.7 pMol/mg protein
  NMN: 1.2 ± 3.3 pMol/mg protein
  NaM: 383.8 ± 282.7 pMol/mg protein
  UDP: 270.0 ± 420.7 pMol/mg protein
  UMP: 1113.7 ± 2374.2 pMol/mg protein
  UTP: 340.3 ± 150.1 pMol/mg protein
  Uridine: 278.3 ± 718.4 pMol/mg protein
  cCMP: 1.8 ± 8.4 pMol/mg protein
  cGMP: 0.0 ± 0.0 pMol/mg protein
[2]; [9]
  ATP: 2435.7 ± 1230.3* pMol/mg protein
  Adenosine: 14.4 ± 9.7* pMol/mg protein
  NAAD: 1.4 ± 2.2* pMol/mg protein
  NAD+: 16.2 ± 14.1* pMol/mg protein
[2]; PBMCs, NR vs placebo
  ATP mean change: 699 pMol/mg protein
  Mean concentration of adenosine: increases in the mean concentration
  Mean concentration of nicotinamide (NaM): elevated the mean concentration of nicotinamide (NaM), but this was not statistically significant
  Mean level of NADP+: increased, but did not reach statistical significance
  NAD+ mean change: 6.2 pMol/mg protein
  NMN mean change: 0.72 pMol/mg protein
[2]; [10]
  Levels of adenosine diphosphate (ADP): tended to raise
  Levels of adenosine monophosphate (AMP): tended to raise
[2]; PBMCs, not significant
  Increase in NMN: ~1.5 fold
[2]; oral NR supplementation
  Elevation of NAD+ levels in PBMCs compared with placebo: about 60%
[3]; all subjects
  Mean arterial blood pressure: moderately lowered
[3]; [11]
  Resting diastolic blood pressure: significantly reduced
  Resting systolic blood pressure: significantly reduced
[3]; human subjects, 500 mg twice daily, within 6 weeks or less
  Pre-hypertension, hypertension, and arterial stiffness: significant improvements
[3]; normotensive individuals
  Blood pressure: no effect
[3]; [12]
  Lowering of systolic blood pressure compared with placebo: 8 mmHg
  Mean (arterial) pressure: significant reduction
[3]; prehypertensive individuals, P=0.09
  Reduction of diastolic blood pressure: 3 mmHg
[4]; all subjects, regardless of baseline blood pressure status
  PWV lowering by baseline blood pressure status: lowered PWV by a similar degree in all subjects
[4]; following NR supplementation compared with placebo
  Large elastic artery stiffness, aortic pulse wave velocity (PWV): significantly reduced
[5]
  Serum ET-1 concentrations: lowers serum ET-1 concentrations
